Assay results: ChEMBL document CHEMBL1287765, “Discovery of novel quinolinone adenosine A2B antagonists” (Bioorg Med Chem Lett, 2010)

assay: Aqueous solubility of compound; format: physicochemical; conditions: buffer

solubility, Insoluble:
COc1ccc2[nH]c(=O)c(S(C)(=O)=O)c(CCc3ccccc3)c2c1
CS(=O)(=O)c1c(CCc2ccccc2)c2cc(OCC(=O)Nc3ccccc3)ccc2[nH]c1=O
CS(=O)(=O)c1c(CCc2ccccc2)c2cc(OCC(=O)NCC3CC3)ccc2[nH]c1=O
CN(Cc1ccc(Cl)c(Cl)c1)C(=O)COc1ccc2[nH]c(=O)c(S(C)(=O)=O)c(CCc3ccccc3)c2c1
CS(=O)(=O)c1c(CCc2ccccc2)c2cc(OCC(=O)NCc3ccc(Cl)c(Cl)c3)ccc2[nH]c1=O
Cn1c(=O)c(S(C)(=O)=O)c(CCc2ccccc2)c2cc(OCC(=O)NCc3ccc(Cl)c(Cl)c3)ccc21
COCCCNC(=O)COc1ccc2[nH]c(=O)c(S(C)(=O)=O)c(CCc3ccccc3)c2c1
CS(=O)(=O)c1c(CCc2ccccc2)c2cc(OCC(=O)NCc3ccccc3)ccc2[nH]c1=O
